Results reported in patent US20170204076A1, “SYNTHESIS AND USE OF AMINO LIPIDS” (INCELLA GMBH, priority 2014, published 2017).

How the values were obtained:
[1] = test system: mouse embryonic fibroblast (MEF) cells; assay: Transfection of LRP6 siRNA in MEF cells, Western Blot of LRP6 protein; assay type: cell-based; settings: for siRNA mediated gene silencing compared with the commercial reagent A: LRP6 siRNA, MEF cells cultured for 24 hours, Western Blot; for ability to deliver siRNA molecules to cells: see FIGS. 5 and 6
Procedure: In order to screen for this two different types of cells were used to test the ability of our lipid reagents to deliver siRNA targeting Low density lipoprotein receptor related protein 6 (LRP6). This is a 200 kD single-pass transmembrane receptor for Wnt ligands and activates the Wnt/b-catenin signalling pathway. It is expressed at relatively high levels in MEF cells.
Assay: Transfection of siRNA in mouse embryonic fibroblast (MEF) cells
All steps performed in 0.2 ml PCR tubes and 96 well plate format. Amounts shown are for one well of a 96-well plate.
1. 0.25 μl lipid reagents diluted in 8 μl 50 mmol/l NaOAc buffer, pH 5.0. 2. Diluted lipid reagents from (1) added to 1 pmol (0.2 μl of 5 μmol/1) siRNA molecules in 8 μl NaOAc buffer, pH 5.0 and mixed with pipette action. The siRNA molecules used had either a scrambled sequence not specific for any known gene (Con siRNA), or a sequence specifically targeting the endogenous mRNA from the LRP6 gene (LRP6 siRNA). 3. After 30 min incubation at RT, added 50 μl freshly resuspended cells (2×10^4 cells/well DMEM culture medium supplemented with 10% fetal calf serum) in one well of a 96-well plate and placed in 37° C. incubator with 5% CO2. 4. 24 hours after initial transfection, cells, were lysed in 25 μl detergent buffer (50 mmol/l Tris, 1% Triton X-100, 0.15 mol/l NaCl, pH 7.0, containing protease and phosphatase inhibitors), spun to remove insoluble cell debris and […] clarified lysates added to 10 μl of 4× SDS loading buffer (250 mmol/l Tris HCl, 40% Glycerol, 8% SDS, 0.01% Bromophenol Blue, 5% 2-Mercaptoethanol, pH 6.8). 5. Samples were denatures by heating at 96° C. for 2 min and 12 μl loaded on a 9% SDS-PAGE gels for separation of proteins according to molecular weight. Separated proteins were transferred from the SDS-PAGE gel to nitrocellulose membrane for Western Blot (WB) analysis. 6. WB was performed using an automated BioLane HTI instrument using antibodies against LRP6 and α-tubublin proteins. HRP linked secondary antibodies and chemiluminescence were used to detect the proteins on the membrane.
FIGS. 5 and 6 show the Western Blot (WB) analysis of LRP6 protein from total lysates of MEF (mouse embryonic fibroblast) cells transfected with the indicated siRNA molecules and cultured for 24 hours.

HEK 293 cells = assay: Primary screen of lipid reagents: plasmid DNA transfection, YFP fluorescence relative to total cell number (Hoechst); assay type: cell-based; settings: for cell toxicity: Hoechst stained apoptotic nuclei, microscope images; for transfection efficiency: HEK 293 cells, plasmid DNA (YFP), 20 to 24 hours after transfection
Text: Cell line: HEK 293 cells Screen format: 96-well Detection (read-out): YFP fluorescence relative to total cell number (total cell number assessed using the nuclear dye, Hoechst—see FIGS. 1 and 2)
A commercially available liposomal transfection reagent was used as a reference (reference reagent) according to manufacturers' instructions, see FIGS. 1 and 2.
All steps performed in 96 tube/plate format using 8- or 12-channel multi-pipettes. Amounts shown are for duplicate (2×) wells of a 96-well plate.
1. 0.8 μl lipid reagents diluted in 20 μl 50 mmol/l NaOAc buffer, pH 5.0. 2. Diluted lipid reagents from (1) were added to 150 ng DNA (25 ng pH2B-YFP+125 ng pCS-LacZ plasmids) in 20 μl NaOAc buffer, pH 5.0 and mixed with pipette action. 3. After 30 min incubation at RT, added 100 μl freshly resuspended cells (5×10^4 cells/well DMEM culture medium supplemented with 10% fetal calf serum) and mixed with pipette. 4. Duplicate 65 μl aliquots of the cells+lipid/DNA complexes were immediately transferred to separate wells of a 96-well culture plate and placed in 37° C. incubator with 5% CO2. 5. 20 to 24 hours after initial transfection of cells, Hoechst 33258 dye was added to cells at a final concentration of 0.2 μg/ml and cells incubated for a further 30 min at 37° C. Cells were then placed on an inverted microscope and 2 independent sets of images of the cells captured from each well as shown in FIGS. 1 and 2.
For each sample, 3 images were captured: bright field image of cells (FIGS. 1 and 2 upper panels), Hoechst dye stained image of total cell nuclei (FIGS. 1 and 2 middle panels) and YFP images showing cells successfully transfected with plasmid DNA and expressing YFP protein (FIGS. 1 and 2 lower panels). Microscope images of transfected HEK 293 cells, showing both the transfection efficiency and toxicity level of two of our lipid molecules (#30 and #60) compared to a commonly used commercial transfection reagent (reference reagent).

Structure (SMILES)	siRNA mediated gene silencing compared with the commercial reagent A [1]	ability to deliver siRNA molecules to cells [1]	cell toxicity (HEK 293 cells)	transfection efficiency (HEK 293 cells)
CCCCCCCCCCCSCC(CNC(=O)NCCN(C)C)SCCCCCCCCCCC (stereo not shown) [Example 24, 1-(2,3-bis(undecylthio)propyl)-3-(2-(dimethylamino)ethyl)urea]	quite effective	very efficiently deliver siRNA molecules to cells	very low toxicity	–
CCCCCCCCCCCSCC(CNC(=O)NCCCN(CC)CC)SCCCCCCCCCCC (stereo not shown) [Example 30, 1-(2,3-bis(undecylthio)propyl)-3-(3-(diethylamino)propyl)urea]	–	–	low cell toxicity	approximately 90%
CCCCCCCCCCCCSCC(COCC(O)CNCCCN(CC)CC)SCCCCCCCCCCCC (stereo not shown) [Example 60, 13-(dodecylthio)-3-ethyl-11-oxa-15-thia-3,7-diazaheptacosan-9-ol]	–	–	low cell toxicity	approximately 90%
CCCCCCCCCCCSCC(COCC(O)CNCCN(CC)CC)SCCCCCCCCCCC (stereo not shown) [Example 64, 3-ethyl-12-(undecylthio)-10-oxa-14-thia-3,6-diazapentacosan-8-ol]	quite effective	very efficiently deliver siRNA molecules to cells	very low toxicity	–
